The text below walks through data of PubChem BioAssay AID588495 (Sanford-Burnham Center for Chemical Genomics, 2011).

SMILES strings stand for the structures. Values joined by “and” are separate entries in the source; they are usually repeats but may differ in a detail not shown here. Equal entries are not always repeated. Active and inactive are the calls of the source.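 How the source made its calls: active means mean EC50 of 20 µM or lower; inactive means the rest.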 Some results are limits rather than exact numbers.

Neurotensin receptor type 2 (Homo sapiens), sequence (O95665 whole entry, looked up): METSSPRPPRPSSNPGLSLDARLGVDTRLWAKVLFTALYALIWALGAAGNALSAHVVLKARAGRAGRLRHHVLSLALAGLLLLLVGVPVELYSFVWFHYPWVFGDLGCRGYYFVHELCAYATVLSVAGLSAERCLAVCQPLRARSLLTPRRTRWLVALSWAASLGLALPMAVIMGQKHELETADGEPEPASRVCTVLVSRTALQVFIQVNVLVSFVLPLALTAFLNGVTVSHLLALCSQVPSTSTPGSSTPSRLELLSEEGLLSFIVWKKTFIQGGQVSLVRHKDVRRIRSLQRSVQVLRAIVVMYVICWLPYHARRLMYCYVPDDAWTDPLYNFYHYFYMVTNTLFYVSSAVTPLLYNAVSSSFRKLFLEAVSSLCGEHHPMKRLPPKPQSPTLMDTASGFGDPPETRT

The assay has as its target Neurotensin receptor type 2 (Homo sapiens) (UniProt O95665). The experiment in a line: NTR2 agonist activity for selectivity, SAR follow-up, selectivity assay for NTR1 agonist project, imaging, NTR2-U2OS cells, beta-arrestin GFP imaging (AID 588495). The conditions noted are these: image-based GFP translocation.
As to `CCOc1ccc(-c2nnc3c4cc(OC)c(OC)cc4n(Cc4ccc(C)cc4)cc2-3)cc1`, the EC50 is > 40 µM (inactive).
On to `COc1cccc(OC)c1-c1nc(C(=O)N[C@@H](CC(C)C)C(=O)O)cn1-c1ccncc1`, for which the EC50 is > 40 µM (inactive).
As to `Clc1ccc(-n2ncc3c(N4CCN(c5ccccc5)CC4)ncnc32)cc1`, the EC50 is > 40 µM (inactive).
For the compound `COc1cc2nc(C3CCC3)nc(N3CCN(c4ccccc4C)CC3)c2cc1OC`, the EC50 was > 40 µM (inactive).
Take `COc1cc2c3nnc(-c4ccc(C)cc4)c-3cn(Cc3ccc(C)cc3)c2cc1OC`: the EC50 is 5.38 µM.
For the compound `CCc1ccc(-c2nnc3c4cc(OC)c(OC)cc4n(Cc4ccccc4)cc2-3)cc1`, the EC50 was > 40 µM (inactive).
As to `COc1ccccc1-c1cc(C(=O)N[C@@H](CC(C)C)C(=O)OC(C)(C)C)nn1-c1ccnc2cc(Cl)ccc12`, the EC50 was > 40 µM (inactive).
The result for `COc1ccc(-c2nc(C(=O)N[C@@H](CC(C)C)C(=O)O)cn2-c2ccnc3cc(Cl)ccc23)c(OC)c1` reads > 40 µM (inactive); that for `COc1cc2c3nnc(-c4ccc(C)c(C)c4)c-3cn(Cc3ccc(C)cc3)c2cc1OC`, “inactive”; that for `COc1ccc(/C=N/Nc2nc(-c3ccc(S(=O)(=O)N(C)C)cc3)cs2)cc1`, > 40 µM (inactive).
`COc1cc2nc(-c3ccccc3)nc(N3CCN(c4ccc(Cl)cc4)CC3)c2cc1OC`: the EC50 is > 40 µM (inactive).
For the compound `COc1ccc(N2CCN(c3ncnc4c3cnn4-c3ccc(C)cc3C)CC2)cc1`, the EC50 was > 40 µM (inactive).
With `COc1cc2nc(C3CCC3)nc(N3CCN(c4ccccc4F)CC3)c2cc1OC`, the EC50 is > 40 µM (inactive).
With `CCOc1ccc(-c2nnc3c4cc(OC)c(OC)cc4n(Cc4ccc(F)cc4)cc2-3)cc1`, the EC50 entry was “inactive”.
The figure for `O=S(=O)(c1ccc(-c2csc(N/N=C/c3ccco3)n2)cc1)N1CCCC1` is > 40 µM (inactive); for `COc1cccc2c(C(=O)N[C@@H](CC(C)C)C(=O)O)cn(-c3ccnc4cc(Cl)ccc34)c12` it is > 40 µM (inactive).
The result for `CC(C)C[C@H](NC(=O)c1cn(-c2ccnc3cc(Cl)ccc23)c(-c2c(Cl)cccc2Cl)n1)C(=O)O` reads > 40 µM (inactive).
Regarding `CCN(CC)c1ccc(/C=N/Nc2nc(-c3ccc(S(=O)(=O)N(C)C)cc3)cs2)cc1`, the EC50 was > 40 µM (inactive).
The figure for `CC(C)C[C@H](NC(=O)c1nc(-c2ccncc2)c(-c2ccccc2)s1)C(=O)O` is > 40 µM (inactive).
For `COc1cccc(OC)c1-c1cc(C(=O)N[C@@H](CC(C)C)C(=O)OC(C)(C)C)nn1-c1ccnc2cc(Cl)ccc12`, the EC50 was > 40 µM (inactive).
The result for `COc1cccc(N2CCN(c3ncnc4c3cnn4-c3ccc(C)cc3C)CC2)c1` reads > 40 µM (inactive).
The figure for `COc1cc2c3nnc(-c4ccccc4)c-3cn(Cc3ccc(F)cc3)c2cc1OC` is > 40 µM (inactive).
The result for `Cc1ccc(-n2ncc3c(N4CCN(c5ccccc5)CC4)ncnc32)cc1C` reads > 40 µM (inactive).
As for `COc1ccccc1N1CCN(c2ncnc3c2cnn3-c2ccc(C)cc2C)CC1`, the EC50 was > 40 µM (inactive).
The result for `Cc1ccc(-n2ncc3c(N4CCN(c5ccc(F)cc5)CC4)ncnc32)c(C)c1` reads > 40 µM (inactive); that for `COc1cccc(OC)c1-c1nc(C(=O)N[C@@H](CC(C)C)C(=O)O)cn1-c1ccnc2cc(Cl)ccc12`, > 40 µM (inactive).
Take `CN(C)S(=O)(=O)c1ccc(-c2csc(N/N=C/c3ccccc3)n2)cc1`: the EC50 is > 40 µM (inactive).
Turning to `Cc1ccc(-n2ncc3c(N4CCN(c5ccccc5)CC4)ncnc32)c(C)c1`, the EC50 is > 40 µM (inactive).
For the compound `Clc1ccccc1-n1ncc2c(N3CCN(c4ccccc4)CC3)ncnc21`, the EC50 is > 40 µM (inactive).
Take `CCOC(=O)c1cc(-c2c(OC)cccc2OC)n(-c2ccnc3cc(Cl)ccc23)n1`: the EC50 was > 40 µM (inactive).
`CCc1ccc(-c2nnc3c4cc(OC)c(OC)cc4n(Cc4ccc(F)cc4)cc2-3)cc1`: the EC50 entry is “inactive”.
The figure for `Fc1ccc(-n2ncc3c(N4CCN(c5ccccc5)CC4)ncnc32)cc1` is > 40 µM (inactive); for `COc1ccccc1-c1cc(C(=O)N[C@@H](CC(C)C)C(=O)O)nn1-c1ccnc2cc(Cl)ccc12` it is > 40 µM (inactive); for `COc1cc2nc(-c3ccccc3)nc(N3CCN(c4ccccc4OC)CC3)c2cc1OC` it is > 40 µM (inactive).
As to `COc1ccc(Cn2c(SCc3ccccc3)nc3cc(OC)c(OC)cc3c2=N)cc1Cl`, the EC50 was > 40 µM (inactive).
The figure for `COc1cc2c3nnc(-c4ccc(Cl)cc4)c-3cn(Cc3ccccc3)c2cc1OC` is 8.38 µM; for `COc1cccc(OC)c1-c1nc(C(=O)N[C@@H](CC(C)C)C(=O)O)cn1-c1ccc(C)cc1` it is > 40 µM (inactive); for `COc1cc2nc(C)nc(N3CCN(c4ccccc4OC)CC3)c2cc1OC` it is > 40 µM (inactive).
For `Cc1ccc(-n2ncc3c(N4CCN(c5cc(C)ccc5C)CC4)ncnc32)c(C)c1`, the EC50 was > 40 µM (inactive).
`COc1ccccc1-c1nc(C(=O)N[C@@H](CC(C)C)C(=O)O)cn1-c1ccncc1`: the EC50 was > 40 µM (inactive).
Take `CCN(CC)S(=O)(=O)c1ccc(-c2csc(N/N=C/c3ccco3)n2)cc1`: the EC50 was > 40 µM (inactive).
On to `Clc1cccc(-n2ncc3c(N4CCN(c5ccccc5)CC4)ncnc32)c1`, for which the EC50 is > 40 µM (inactive).
As to `CC(C)C[C@H](NC(=O)c1cn(-c2ccnc3cc(Cl)ccc23)c(-c2ccccc2)n1)C(=O)O`, the EC50 is > 40 µM (inactive).
As to `CN(C)S(=O)(=O)c1ccc(-c2csc(N/N=C/c3cccs3)n2)cc1`, the EC50 was > 40 µM (inactive).
The result for `COc1cc2c3nnc(-c4ccc(C)c(C)c4)c-3cn(Cc3ccc(F)cc3)c2cc1OC` reads 4.38 µM; that for `CN(C)S(=O)(=O)c1ccc(-c2csc(N/N=C/c3cccc(Cl)c3)n2)cc1`, > 40 µM (inactive).
`CCCSc1nc2cc(OC)c(OC)cc2c(=N)n1Cc1cccc(C(F)(F)F)c1`: the EC50 was > 40 µM (inactive).
The figure for `COc1ccc2c(c1)c1nnc(-c3ccc(F)cc3)c-1cn2Cc1ccc(C)cc1` is > 40 µM (inactive).
In the case of `CC(=O)c1ccc(N2CCN(c3ncnc4c3cnn4-c3ccc(C)cc3C)CC2)cc1`, the EC50 is > 40 µM (inactive).
`CN(C)S(=O)(=O)c1ccc(-c2csc(N/N=C/c3ccc(C(C)(C)C)cc3)n2)cc1`: the EC50 is > 40 µM (inactive).
The result for `COc1ccc(-n2ncc3c(N4CCN(c5ccccc5)CC4)ncnc32)cc1` reads > 40 µM (inactive).
The figure for `COc1cc2c3nnc(-c4ccc(C)cc4)c-3cn(Cc3ccc(F)cc3)c2cc1OC` is 6.4 µM; for `CC(C)C[C@H](NC(=O)c1cn(-c2ccncc2)c(-c2ccccc2)n1)C(=O)O` it is > 40 µM (inactive); for `COc1ccc(Cn2c(SCc3ccc(C)cc3)nc3cc(OC)c(OC)cc3c2=N)cc1Cl` it is > 40 µM (inactive).
For `Cc1cccc(C)c1-c1nc(C(=O)N[C@@H](CC(C)C)C(=O)O)cn1-c1ccnc2cc(Cl)ccc12`, the EC50 was > 40 µM (inactive).
The figure for `Cc1cc(Cl)ccc1-n1ncc2c(N3CCN(c4ccccc4)CC3)ncnc21` is > 40 µM (inactive); for `COc1cc2nc(SCc3ccncc3)n(Cc3cccc(C(F)(F)F)c3)c(=N)c2cc1OC` it is > 40 µM (inactive); for `Cc1ccc(-n2ncc3c(N4CCN(c5ccc([N+](=O)[O-])cc5)CC4)ncnc32)c(C)c1` it is > 40 µM (inactive).
As for `CCOc1ccc(-c2nnc3c4cc(OC)c(OC)cc4n(Cc4ccccc4)cc2-3)cc1`, the EC50 was > 40 µM (inactive).
The result for `COc1cccc(OC)c1-c1cc(C(=O)O)nn1-c1ccnc2cc(Cl)ccc12` reads > 40 µM (inactive); that for `CCOc1cc2nc(-c3ccc(OC)c(OC)c3)nc(N3CCN(c4ccccc4)CC3)c2cc1OC`, > 40 µM (inactive); that for `COc1cc2nc(C3CCC3)nc(N3CCN(c4ccccc4)CC3)c2cc1OC`, > 40 µM (inactive).
With `COc1cc2nc(-c3ccccc3)nc(N3CCN(c4ccc(F)cc4)CC3)c2cc1OC`, the EC50 is > 40 µM (inactive).
Turning to `CCOc1cc2nc(-c3ccc(OC)c(OC)c3)nc(N3CCN(c4ccccc4F)CC3)c2cc1OC`, the EC50 is > 40 µM (inactive).
With `Cc1ccc(-n2ncc3c(N4CCN(c5ccccc5)CC4)ncnc32)cc1`, the EC50 is > 40 µM (inactive).
With `Cc1ccc(Cn2cc3c(-c4ccc(F)cc4)nnc-3c3cc4c(cc32)OCO4)cc1`, the EC50 is 15.3 µM.
The result for `COc1ccccc1-c1cc(C(=O)O)nn1-c1ccnc2cc(Cl)ccc12` reads > 40 µM (inactive); that for `COc1cc2c3nnc(-c4ccc(F)cc4)c-3cn(Cc3ccc(C)cc3)c2cc1OC`, 4.14 µM and 3.32 µM.
The figure for `COc1ccccc1-c1nc(C(=O)N[C@@H](CC(C)C)C(=O)O)cn1-c1ccnc2ccccc12` is > 40 µM (inactive); for `COc1ccccc1-c1nc(C(=O)N[C@@H](CC(C)C)C(=O)O)cn1-c1ccnc2cc(Cl)ccc12` it is > 40 µM (inactive); for `COc1cccc(N2CCN(c3nc(C4CCC4)nc4cc(OC)c(OC)cc34)CC2)c1` it is > 40 µM (inactive).
The figure for `COc1cc2c3nnc(-c4ccc(C)c(C)c4)c-3cn(Cc3ccccc3)c2cc1OC` is > 40 µM (inactive); for `O=S(=O)(c1ccc(-c2csc(N/N=C/c3ccco3)n2)cc1)N1CCOCC1` it is > 40 µM (inactive).
Turning to `COc1cc2c3nnc(-c4ccc(F)cc4)c-3cn(Cc3ccc(F)cc3)c2cc1OC`, the 50% effective concentration (EC50) is 9.69 µM.
The result for `Cc1ccc(-n2ncc3c(N4CCN(c5cccc(Cl)c5)CC4)ncnc32)c(C)c1` reads > 40 µM (inactive); that for `COc1cc2ncnc(N3CCN(c4ccccc4OC)CC3)c2cc1OC`, > 40 µM (inactive); that for `COc1cc2nc(C3CCC3)nc(N3CCN(c4ccccc4Cl)CC3)c2cc1OC`, > 40 µM (inactive).
As for `CC(C)C[C@H](NC(=O)c1cn(-c2ccnc3ccccc23)c2c(OCc3ccccc3)cccc12)C(=O)O`, the EC50 is > 40 µM (inactive).

As usually defined, the EC50 is the concentration that produces a half-maximal response.
